# Square brackets hold non-standard residues; d marks the D form. Peptide text beside a SMILES is read from it. * marks the point of attachment. ξ: configuration not given here. ξF = NC(Cc1ccccc1)C(=O)O; Boc = CC(C)(C)OC(=O)*; CF3 = FC(F)(F)*
# Assays:
# [1] = target: T1, Neutrophil elastase (Homo sapiens, UniProt P08246); assay: The compound was tested for its potency to inhibit human neutrophil elastase activity
# T1 sequence (P08246 whole entry): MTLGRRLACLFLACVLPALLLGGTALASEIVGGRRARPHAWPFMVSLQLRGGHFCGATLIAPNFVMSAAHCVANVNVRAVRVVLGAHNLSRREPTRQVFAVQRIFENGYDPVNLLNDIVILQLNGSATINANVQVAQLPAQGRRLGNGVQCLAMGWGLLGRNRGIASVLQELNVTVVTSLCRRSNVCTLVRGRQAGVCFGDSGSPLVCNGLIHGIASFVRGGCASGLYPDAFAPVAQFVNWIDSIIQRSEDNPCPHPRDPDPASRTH
# [2] = target: T2, Cathepsin G (Homo sapiens, UniProt P08311); assay: The compound was tested for its potency to inhibit human Cathepsin G
# T2 sequence (P08311 whole entry): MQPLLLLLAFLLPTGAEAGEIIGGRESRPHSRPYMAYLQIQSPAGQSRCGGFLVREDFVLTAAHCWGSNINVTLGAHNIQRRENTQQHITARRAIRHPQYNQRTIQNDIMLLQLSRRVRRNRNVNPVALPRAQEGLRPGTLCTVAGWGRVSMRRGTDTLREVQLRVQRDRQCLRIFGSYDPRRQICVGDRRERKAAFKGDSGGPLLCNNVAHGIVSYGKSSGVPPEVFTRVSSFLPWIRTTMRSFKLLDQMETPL
# [3] = target: Chymotrypsinogen A (Bos taurus, UniProt P00766); assay: The compound was tested for its potency to inhibit alpha-Chymotrypsin
Ki [1],Ki [2],Ki [3],Compound
0.055 µM,–,–,CC(C)C(NC(=O)[C@@H]1CCCN1C(=O)[C@@H](NC(=O)OC(C)(C)C)C(C)C)C(=O)C(F)(F)C(F)(F)F (some centres not stated)
–,1.7 µM,–,CC(C)[C@H](NC(=O)OC(C)(C)C)C(=O)N1CCC[C@H]1C(=O)NC(Cc1ccccc1)C(=O)C(F)(F)F (stereo partly drawn) (Boc-Val-Pro-[ξF]-CF3)
0.0159 µM,2.2 µM,–,CC(C)C(NC(=O)[C@@H]1CCCN1C(=O)[C@@H](NC(=O)c1ccc(C(=O)N[C@@H](C(=O)N2CCC[C@@H]2C(=O)NC(Cc2ccccc2)C(=O)C(F)(F)F)C(C)C)cc1)C(C)C)C(=O)C(F)(F)C(F)(F)F (some centres not stated)
0.004 µM,> 1000 µM,1.2 µM,CC(C)C(NC(=O)[C@@H]1CCCN1C(=O)[C@@H](NC(=O)c1ccc(C(=O)NC(Cc2ccccc2)C(=O)C(F)(F)F)cc1)C(C)C)C(=O)C(F)(F)C(F)(F)F (some centres not stated)

# From ChEMBL document CHEMBL1127203, “Janus compounds: dual inhibitors of proteinases” (Bioorg Med Chem Lett, 1993)
